In patent US20140112895A1, “GLP-1 PROMOTER MEDIATED INSULIN EXPRESSION FOR THE TREATMENT OF DIABETES” (priority 2010, published 2014):

Test system: STC-1 cells
Assay: MTT assay of antibiotic cytotoxicity on STC-1 cells
Type: cell-based, mouse
Conditions: STC-1 cells without antibiotic resistant gene; antibiotic range 0 to 1 mg/ml; optical density read at 560 nm
From the text: For assessment of antibiotic cytotoxicity, a common methodology is the MTT assay which has been widely used as a colorimetric approach based on the activity of living cells. MTT assay is a standard assay (an assay which measures changes in color) for measuring cellular proliferation. Yellow MTT (3-(4,5-Dimethylthiazol-2-yl)-2,5-diphenyltetrazolium bromide, a tetrazole) is reduced to purple formazan in the mitochondria of living cells. The absorbance of this colored solution can be quantified by measuring at a certain wavelength (usually between 500 and 600 nm) by a spectrophotometer.
Therefore, the MTT assay was done for both antibiotics to determine the appropriate concentration of the antibiotic that kills the entire STC-1 cells lacking the antibiotic resistant gene. In this case, STC-1 cells (without any antibiotic resistant gene) were treated with different concentration of zeocin and geneticin antibiotic. The concentration of antibiotics in the culture media was in the range of 0 to 1 mg/ml in 12 wells (Table 7).
Optical density of solutions was read at 560 nm on an ELISA plate reader. The absorbance of colored solution is directly proportional to the number of cells. Based on MTT assay result, the concentration of geneticin and zeocin antibiotic that are able to kill all the STC-1 cells (without antibiotic resistant gene) were 400 ug/ml and 500 ug/ml.

Compound | concentration of antibiotic able to kill all the STC-1 cells
CN[C@@H]1[C@@H](O)[C@@H](O[C@@H]2[C@@H](O)[C@H](O[C@H]3O[C@H]([C@@H](C)O)[C@@H](O)[C@H](O)[C@H]3N)[C@@H](N)C[C@H]2N)OC[C@]1(C)O [geneticin] | 400 µg/mL
Cc1c(N)nc([C@H](CC(N)=O)NC[C@H](N)C(N)=O)nc1C(=O)N[C@H](C(=O)N[C@H](C)[C@@H](O)[C@H](C)C(=O)N[C@H](C(=O)NCCC1=N[C@@H](c2nc(C(=O)NCCCCN=C(N)N)cs2)CS1)[C@@H](C)O)[C@@H](O[C@@H]1O[C@@H](CO)[C@@H](O)[C@H](O)[C@@H]1O[C@H]1O[C@H](CO)[C@@H](O)[C@H](OC(N)=O)[C@@H]1O)c1cnc[nH]1 [zeocin] | 500 µg/mL
